Data on twelve molecules can be found in PubChem BioAssay (NCI).

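1) Cells in 96-well plates. 2) Compound, 48 h, 5 concentrations. 3) Linear interpolation between surrounding doses. 4) Unreached endpoint = highest concentration. The concentration for full growth arrest is given as TGI.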

Assay in all cases: inhibition of tumour cell growth, NCI panel, 48 h
Test [1] concerns MOLT-4 leukemia.
Test [2] deals with A549 NSCLC.
The subject of test [3] is HCC-2998 colon.
Test [4] deals with SNB-75 CNS.
For test [5], the system named is MCF7 breast.
Test [6] has as its system TK-10 renal.
Test [7] deals with OVCAR-8 ovarian.
Test [8] has as its system NCI-H460 lung.
The test system of test [9] is M14 melanoma.
The subject of test [10] is U251 CNS.

On to `O=c1c2ncn(C3CC(O)C(CO)O3)c2nnn1Cc1ccccc1[N+](=O)[O-]` (stereo not given), for which the TGI in test [1], in test [2], in test [3], in [4], in [5] and in test [6] was greater than 100 µM in each case. Also, the TGI in test [7], in test [8], in test [9] and in test [10] was greater than 100 µM throughout.

With `CC(=O)OC[C@]1(C(=O)C(O)c2ccoc2)[C@H](C)CC[C@@]23COC(=O)C2=CCC[C@@H]31` (stereo not given in full), the TGI in test [1], in test [2], in test [3], in test [4], in [5] and in test [6] was greater than 10 µM each time. Besides, the TGI in test [7], in test [8], in test [9] and in test [10] was greater than 10 µM in each case.

Regarding `COc1cccc(-c2cc(=O)c3c(C)cc(C)nc3[nH]2)c1`, the TGI in test [1] is greater than 71.9 µM; in test [2], greater than 100 µM; in test [3], 6.19 µM; in [4], 0.671 µM; in [5], 27.3 µM; in [6] it was greater than 100 µM. The TGI in test [7] is greater than 100 µM; in test [8], greater than 42.1 µM; in test [9] it was greater than 100 µM; in [10], greater than 88.6 µM.

As for `COc1cc2c(cc1OC)C1c3ccccc3CCN1CC2` (stereo not given), the TGI in test [1], in [2], in test [3], in test [4], in test [5] and in test [6] was greater than 100 µM in each case. Further, the TGI in test [7], in test [8], in test [9] and in test [10] was greater than 100 µM in each case.

`CC1(C)C(c2ccccc2)=[N+]([O-])C(C)(C)N1O`: the TGI in test [1], in [2], in test [3], in test [4], in test [5] and in test [6] was greater than 10 µM throughout. In addition, the TGI in [7], in test [8], in test [9] and in test [10] was greater than 10 µM each time.

`c1ccc2c(c1)[nH]c1nc3cc(-c4ccc5nc6c(nc5c4)[nH]c4ccccc46)ccc3nc12`: the TGI in test [1], in [2], in test [3], in test [4], in [5] and in test [6] was greater than 100 µM throughout. The TGI in test [7], in test [8], in test [9] and in test [10] was greater than 100 µM throughout.

In the case of `Cc1ccc(S(=O)(=O)N2CCSCCSCCSCCSCC2)cc1`, the TGI in test [1] was greater than 100 µM; in test [2] it was greater than 100 µM; in test [3] it was greater than 100 µM; in test [4], 29.8 µM; in [5], greater than 100 µM; in [6] it was greater than 74.5 µM. Further, the TGI was 48.4 µM in test [7], greater than 100 µM in test [8], greater than 100 µM in test [9] and 35.3 µM in test [10].

As to `Cc1ccccc1OC(C)C(=O)NN1C(=O)CC(=O)N(c2ccc(Cl)cc2)C1=S` (stereo not given), the TGI is greater than 100 µM in test [1]; greater than 100 µM in test [2]; 71.9 µM in test [3]; greater than 100 µM in test [4]; greater than 100 µM in test [5]; greater than 100 µM in test [6]. Moreover, the TGI in test [7], in [8], in test [9] and in test [10] was greater than 100 µM throughout.

Turning to `O=C1C(c2c(O)[nH]c3ccc(S(=O)(=O)O)cc23)=Nc2ccccc21`, the TGI in [1], in [2], in test [3], in test [4], in test [5] and in test [6] was greater than 100 µM in each case. The TGI in test [7], in [8], in [9] and in test [10] was greater than 100 µM in each case.

As for `CC(=O)N/N=C1/NN(C(C)=O)C2(S1)C(=O)Nc1ccc(Br)cc12` (stereo not given), the TGI in test [1], in test [2], in test [3], in test [4], in test [5] and in [6] was greater than 100 µM each time. The TGI in test [7], in test [8], in test [9] and in test [10] was greater than 100 µM in each case.

With `CC(C)(C)NC(=O)[C@H]1CC[C@H]2[C@@H]3CC=C4NC(=O)CC[C@]4(C)[C@H]3CC[C@]12C`, the TGI is greater than 100 µM in [1]; greater than 100 µM in test [2]; greater than 100 µM in test [3]; 99 µM in test [4]; greater than 100 µM in test [5]; greater than 100 µM in test [6]. In addition, the TGI in test [7], in [8], in test [9] and in test [10] was greater than 100 µM in each case.

Take `O=C1/C(=C/c2ccccc2S)N=C(c2ccccc2)N1c1nc2ccc(Sc3ccccc3)cc2[nH]1`: the TGI in [1] was greater than 100 µM; in test [2], greater than 100 µM; in test [3], 37.6 µM; in test [4], 93.5 µM; in [5] it was 84.5 µM; in test [6], 70.3 µM. In addition, the TGI is greater than 100 µM in test [7], 57 µM in test [8], 49 µM in [9] and 51.7 µM in test [10].
